Assays:
Assay in all cases: competitive isoTOP-ABPP
Assay type in all cases: binding
[1] = target: T1, AKR1C3 Aldo-keto reductase family 1 member C3 (Homo sapiens, UniProt P42330); conditions: for isoTOP-ABPP ratio, lysine P42330_K270: 50 uM_231_sol_in vitro, possible other lysine P52895_K270, P17516_K270, Q04828_K270
T1 construct: isoTOP-ABPP experiments performed in cell lysates (in vitro); endogenous in cells; host or cells: soluble proteome of human cancer cell lines (MDA-MB-231; Ramos and Jurkat also prepared)
T1 sequence (P42330 1-323): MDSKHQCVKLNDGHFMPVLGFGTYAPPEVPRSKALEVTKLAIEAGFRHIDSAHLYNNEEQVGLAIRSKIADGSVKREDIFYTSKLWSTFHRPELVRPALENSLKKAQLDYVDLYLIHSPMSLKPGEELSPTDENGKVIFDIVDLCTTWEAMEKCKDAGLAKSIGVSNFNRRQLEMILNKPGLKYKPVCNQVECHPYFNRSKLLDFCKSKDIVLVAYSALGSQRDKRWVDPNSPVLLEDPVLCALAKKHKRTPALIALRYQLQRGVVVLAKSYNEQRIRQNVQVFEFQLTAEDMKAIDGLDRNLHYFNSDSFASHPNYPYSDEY
In short: (§1)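 Lysate + fragment (50 μM activated ester / 100 μM guanidinylating agent) or DMSO → 0.1 mM STP-alkyne, 1 h, RT → CuAAC to TEV tags (compound light, DMSO heavy) → LC-MS. R = heavy/light MS1 area; liganded lysine if R≥4.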

[2] = target: T2, MRPL12 39S ribosomal protein L12, mitochondrial (Homo sapiens, UniProt P52815); conditions: for isoTOP-ABPP ratio, lysine P52815_K87: 50 uM_231_sol_in vitro, possible other lysine B4DLN1_K87, P52815_K91
T2 construct: isoTOP-ABPP experiments performed in cell lysates (in vitro); endogenous in cells; host or cells: soluble proteome of human cancer cell lines (MDA-MB-231, Ramos, Jurkat)
In short: as §1

[3] = target: T3, SMPD1 Sphingomyelin phosphodiesterase (Homo sapiens, UniProt P17405); conditions: for isoTOP-ABPP ratio, lysine P17405_K118: 50 uM_231_sol_in vitro
T3 construct: isoTOP-ABPP experiments performed in cell lysates (in vitro); endogenous in cells; host or cells: soluble proteome of human cancer cell lines (MDA-MB-231; Ramos and Jurkat also prepared)
T3 sequence (P17405 47-631): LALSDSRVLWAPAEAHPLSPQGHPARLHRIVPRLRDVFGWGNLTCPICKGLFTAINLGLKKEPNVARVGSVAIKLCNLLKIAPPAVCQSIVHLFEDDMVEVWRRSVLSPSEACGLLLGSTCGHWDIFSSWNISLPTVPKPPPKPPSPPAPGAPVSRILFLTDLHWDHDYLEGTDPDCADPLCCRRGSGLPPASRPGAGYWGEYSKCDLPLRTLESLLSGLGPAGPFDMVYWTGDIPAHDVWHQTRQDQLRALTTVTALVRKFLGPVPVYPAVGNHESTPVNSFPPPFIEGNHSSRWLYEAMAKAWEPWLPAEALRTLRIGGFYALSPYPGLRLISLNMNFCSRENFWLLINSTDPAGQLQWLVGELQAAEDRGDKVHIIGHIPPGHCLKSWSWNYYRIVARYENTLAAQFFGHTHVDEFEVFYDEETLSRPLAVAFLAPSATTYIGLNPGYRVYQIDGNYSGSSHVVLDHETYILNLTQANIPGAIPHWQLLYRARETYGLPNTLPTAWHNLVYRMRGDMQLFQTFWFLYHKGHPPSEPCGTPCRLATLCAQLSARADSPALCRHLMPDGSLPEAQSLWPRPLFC
In short: as §1

[4] = target: T4, SOD2 Superoxide dismutase (Homo sapiens, UniProt P04179); conditions: for isoTOP-ABPP ratio, lysine P04179_K68: 50 uM_231_sol_in vitro
T4 construct: isoTOP-ABPP experiments performed in cell lysates (in vitro); endogenous in cells; host or cells: MDA-MB-231 soluble lysate
T4 sequence (P04179 25-222): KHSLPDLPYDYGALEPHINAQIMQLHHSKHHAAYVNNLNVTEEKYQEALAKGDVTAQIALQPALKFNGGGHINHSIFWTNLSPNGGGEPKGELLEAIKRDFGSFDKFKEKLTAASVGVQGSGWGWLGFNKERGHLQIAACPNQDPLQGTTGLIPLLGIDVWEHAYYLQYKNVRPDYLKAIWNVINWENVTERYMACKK
In short: as §1

Row | Structure (SMILES) | isoTOP-ABPP ratio (R) at liganded lysine P42330_K270 ([1]; 50 uM, in vitro, sol, 231) | isoTOP-ABPP ratio (R) at liganded lysine P52815_K87 ([2]; 50 uM, in vitro, sol, 231) | isoTOP-ABPP ratio (R) at liganded lysine P17405_K118 ([3]; 50 uM, in vitro, sol, 231) | isoTOP-ABPP ratio (R) at liganded lysine P04179_K68 ([4]; 50 uM, in vitro, sol, 231) | isoTOP-ABPP ratio, lysine P42330_K270 [1] | isoTOP-ABPP ratio, lysine P52815_K87 [2] | isoTOP-ABPP ratio, lysine P17405_K118 [3] | isoTOP-ABPP ratio, lysine P04179_K68 [4]
1 | CC(C)(C)OC(=O)NCCCC(=O)Oc1ccc([N+](=O)[O-])cc1[N+](=O)[O-] [fragment 41, 2,4-Dinitrophenyl 4-((tert-butoxycarbonyl)amino)butanoate] | 0.7 | 4.1 | 1.5 | 4.8 | – | – | – | –
2 | N#Cc1ccc(C(=O)Oc2ccc([N+](=O)[O-])cc2[N+](=O)[O-])cc1 [fragment 44, 2,4-Dinitrophenyl 4-cyanobenzoate] | – | – | – | – | 0.5 | 1.1 | 0.8 | 1.6
3 | O=C(CCc1ccc2c(c1)OCO2)Oc1ccc([N+](=O)[O-])cc1[N+](=O)[O-] [fragment 45, 2,4-Dinitrophenyl 3-(benzo[d][1,3]dioxol-5-yl)propanoate] | – | – | – | – | 0.8 | 1.8 | 1.1 | 0.9
4 | NC(=O)c1cc(C(F)(F)F)cc(C(F)(F)F)c1 [fragment 51, reference compound] | – | – | – | – | 0.8 | 0.9 | 0.9 | 0.9
